Measured values: the NIST ThermoML archive (doi:10.1016/j.jct.2016.12.012)
Where “and” joins values, the source holds several entries; their conditions need not be identical. Equal values may be shown once. Numbers after ± are expanded uncertainties.

Legend:
[1] = for Normal melting temperature: DTA
[2] = Molar enthalpy of transition or fusion; conditions: DSC

CC(=O)Oc1ccccc1C(C)=O [2'-acetoxyacetophenone]
[1]
Conditions	vapor or sublimation pressure
298.01 K, Crystal, Calculated from knudsen effusion weight loss	6.1e-05 ± 2e-05 kPa and 6e-05 ± 2e-05 kPa
299.4 K, Crystal, Calculated from knudsen effusion weight loss	7.4e-05 ± 2e-05 kPa
301.22 K, Crystal, Calculated from knudsen effusion weight loss	9.7e-05 ± 2e-05 kPa and 9.6e-05 ± 2e-05 kPa
303.17 K, Crystal, Calculated from knudsen effusion weight loss	0.000121 ± 2e-05 kPa and 0.000122 ± 2e-05 kPa and 0.000124 ± 2e-05 kPa
305.39 K, Crystal, Calculated from knudsen effusion weight loss	0.000164 ± 2.1e-05 kPa and 0.000166 ± 2.1e-05 kPa
307.2 K, Crystal, Calculated from knudsen effusion weight loss	0.000214 ± 2.1e-05 kPa and 0.000217 ± 2.1e-05 kPa and 0.000215 ± 2.1e-05 kPa
309.14 K, Crystal, Calculated from knudsen effusion weight loss	0.000275 ± 2.2e-05 kPa and 0.000277 ± 2.2e-05 kPa
311.34 K, Crystal, Calculated from knudsen effusion weight loss	0.000362 ± 2.4e-05 kPa and 0.000361 ± 2.4e-05 kPa and 0.000365 ± 2.4e-05 kPa
313 K, Crystal, Closed cell (Static) method	0.00046 ± 0.00011 kPa
313.21 K, Crystal, Calculated from knudsen effusion weight loss	0.000467 ± 2.6e-05 kPa and 0.000465 ± 2.6e-05 kPa and 0.000469 ± 2.6e-05 kPa
315.01 K, Crystal, Closed cell (Static) method	0.0006 ± 0.00011 kPa
315.13 K, Crystal, Calculated from knudsen effusion weight loss	0.00059 ± 3e-05 kPa and 0.000588 ± 2.9e-05 kPa and 0.000593 ± 2.9e-05 kPa
316.99 K, Crystal, Closed cell (Static) method	0.00076 ± 0.00011 kPa
317.31 K, Crystal, Calculated from knudsen effusion weight loss	0.000786 ± 3.4e-05 kPa and 0.000778 ± 3.4e-05 kPa
318.98 K, Crystal, Closed cell (Static) method	0.00097 ± 0.00012 kPa
319.28 K, Crystal, Calculated from knudsen effusion weight loss	0.00102 ± 8e-05 kPa and 0.001014 ± 7.9e-05 kPa and 0.001001 ± 7.8e-05 kPa
320.96 K, Crystal, Closed cell (Static) method	0.00123 ± 0.00012 kPa
321.27 K, Crystal, Calculated from knudsen effusion weight loss	0.001305 ± 0.00011 kPa and 0.001292 ± 0.00011 kPa and 0.001286 ± 0.00011 kPa
322.97 K, Crystal, Closed cell (Static) method	0.00156 ± 0.00013 kPa
324.96 K, Crystal, Closed cell (Static) method	0.00199 ± 0.00014 kPa
326.91 K, Crystal, Closed cell (Static) method	0.0025 ± 0.00015 kPa
328.91 K, Crystal, Closed cell (Static) method	0.00314 ± 0.00017 kPa
330.92 K, Crystal, Closed cell (Static) method	0.00397 ± 0.00019 kPa
332.88 K, Crystal, Closed cell (Static) method	0.00495 ± 0.00023 kPa
334.86 K, Crystal, Closed cell (Static) method	0.00619 ± 0.00027 kPa
336.81 K, Crystal, Closed cell (Static) method	0.00762 ± 0.00032 kPa
338.84 K, Crystal, Closed cell (Static) method	0.00958 ± 0.00039 kPa
340.8 K, Crystal, Closed cell (Static) method	0.01175 ± 0.00047 kPa
342.74 K, Crystal, Closed cell (Static) method	0.01458 ± 0.00054 kPa
344.72 K, Crystal, Closed cell (Static) method	0.01786 ± 0.00059 kPa
344.73 K, Metastable liquid, Closed cell (Static) method	0.03005 ± 0.00078 kPa
346.7 K, Crystal, Closed cell (Static) method	0.02195 ± 0.00065 kPa
346.73 K, Metastable liquid, Closed cell (Static) method	0.03465 ± 0.00085 kPa
348.65 K, Metastable liquid, Closed cell (Static) method	0.03975 ± 0.00093 kPa
348.68 K, Crystal, Closed cell (Static) method	0.02665 ± 0.00073 kPa
350.65 K, Metastable liquid, Closed cell (Static) method	0.04556 ± 0.001 kPa
350.69 K, Crystal, Closed cell (Static) method	0.0325 ± 0.00082 kPa
352.61 K, Crystal, Closed cell (Static) method	0.0395 ± 0.00093 kPa
352.64 K, Metastable liquid, Closed cell (Static) method	0.05208 ± 0.0011 kPa
354.59 K, Metastable liquid, Closed cell (Static) method	0.05928 ± 0.0012 kPa
354.61 K, Crystal, Closed cell (Static) method	0.04802 ± 0.0011 kPa
356.54 K, Crystal, Closed cell (Static) method	0.05812 ± 0.0012 kPa
356.54 K, Metastable liquid, Closed cell (Static) method	0.06775 ± 0.0014 kPa
358.51 K, Metastable liquid, Closed cell (Static) method	0.07683 ± 0.0015 kPa
360.53 K, Metastable liquid, Closed cell (Static) method	0.08729 ± 0.0017 kPa
362.46 K, Metastable liquid, Closed cell (Static) method	0.0988 ± 0.0018 kPa
364.45 K, Closed cell (Static) method, Liquid	0.1124 ± 0.0021 kPa
366.49 K, Closed cell (Static) method, Liquid	0.127 ± 0.0023 kPa
368.43 K, Closed cell (Static) method, Liquid	0.1443 ± 0.0021 kPa
370.48 K, Closed cell (Static) method, Liquid	0.162 ± 0.0023 kPa
372.37 K, Closed cell (Static) method, Liquid	0.1819 ± 0.0024 kPa
374.39 K, Closed cell (Static) method, Liquid	0.205 ± 0.0026 kPa
376.34 K, Closed cell (Static) method, Liquid	0.2324 ± 0.0028 kPa
378.28 K, Closed cell (Static) method, Liquid	0.2588 ± 0.0031 kPa
380.23 K, Closed cell (Static) method, Liquid	0.2847 ± 0.0033 kPa
382.24 K, Closed cell (Static) method, Liquid	0.3195 ± 0.0036 kPa
384.15 K, Closed cell (Static) method, Liquid	0.3609 ± 0.0039 kPa
386.19 K, Closed cell (Static) method, Liquid	0.3984 ± 0.0043 kPa
388.15 K, Closed cell (Static) method, Liquid	0.4446 ± 0.0047 kPa
390.12 K, Closed cell (Static) method, Liquid	0.4936 ± 0.0051 kPa
392.04 K, Closed cell (Static) method, Liquid	0.5463 ± 0.0055 kPa
394.07 K, Closed cell (Static) method, Liquid	0.6059 ± 0.0061 kPa
395.98 K, Closed cell (Static) method, Liquid	0.6687 ± 0.0066 kPa
398 K, Closed cell (Static) method, Liquid	0.7392 ± 0.0072 kPa

Crystal
Conditions	Molar enthalpy of transition or fusion [kcal/mol]	Normal melting temperature [°C]
[1]	–	88.7 ± 0.6
[2]	7.72 ± 0.191	–

CC(=O)Oc1cccc(C(C)=O)c1 [3-acetoxyacetophenone]
[1], Crystal 2, Calculated from knudsen effusion weight loss
Conditions	vapor or sublimation pressure
297.65 K	0.000123 ± 2e-05 kPa and 0.000124 ± 2e-05 kPa
299.16 K	0.000153 ± 2.1e-05 kPa and 0.000152 ± 2.1e-05 kPa
300.09 K	0.000169 ± 2.1e-05 kPa and 0.000167 ± 2.1e-05 kPa and 0.000168 ± 2.1e-05 kPa
301.23 K	0.000194 ± 2.1e-05 kPa and 0.000196 ± 2.1e-05 kPa
302.21 K	0.00023 ± 2.2e-05 kPa
303.25 K	0.000262 ± 2.2e-05 kPa and 0.000259 ± 2.2e-05 kPa
304.24 K	0.000293 ± 2.3e-05 kPa and 0.00029 ± 2.2e-05 kPa
305.23 K	0.000337 ± 2.3e-05 kPa and 0.00034 ± 2.3e-05 kPa and 0.000334 ± 2.3e-05 kPa
306.24 K	0.000387 ± 2.4e-05 kPa and 0.000383 ± 2.4e-05 kPa and 0.000389 ± 2.4e-05 kPa
307.26 K	0.000436 ± 2.5e-05 kPa and 0.000441 ± 2.5e-05 kPa and 0.000434 ± 2.5e-05 kPa

[1]
Conditions	vapor or sublimation pressure [kPa]
305.09 K, Metastable liquid, Closed cell (Static) method	0.00046 ± 0.00011
307.07 K, Metastable liquid, Closed cell (Static) method	0.00055 ± 0.00011
309.03 K, Metastable liquid, Closed cell (Static) method	0.00067 ± 0.00011
311.04 K, Metastable liquid, Closed cell (Static) method	0.00082 ± 0.00011
312.98 K, Metastable liquid, Closed cell (Static) method	0.001 ± 0.00012
315.01 K, Closed cell (Static) method, Liquid	0.00122 ± 0.00012
317.02 K, Closed cell (Static) method, Liquid	0.00147 ± 0.00012
319.06 K, Closed cell (Static) method, Liquid	0.00173 ± 0.00013
320.99 K, Closed cell (Static) method, Liquid	0.00206 ± 0.00014
323.04 K, Closed cell (Static) method, Liquid	0.00247 ± 0.00015
324.96 K, Closed cell (Static) method, Liquid	0.00291 ± 0.00016
326.99 K, Closed cell (Static) method, Liquid	0.00346 ± 0.00018
328.93 K, Closed cell (Static) method, Liquid	0.0041 ± 0.0002
330.94 K, Closed cell (Static) method, Liquid	0.00489 ± 0.00022
332.92 K, Closed cell (Static) method, Liquid	0.00565 ± 0.00025
334.91 K, Closed cell (Static) method, Liquid	0.00677 ± 0.00029
336.87 K, Closed cell (Static) method, Liquid	0.00798 ± 0.00033
338.84 K, Closed cell (Static) method, Liquid	0.00935 ± 0.00038
340.83 K, Closed cell (Static) method, Liquid	0.01079 ± 0.00044
342.8 K, Closed cell (Static) method, Liquid	0.01271 ± 0.00051
344.79 K, Closed cell (Static) method, Liquid	0.01475 ± 0.00054
346.92 K, Closed cell (Static) method, Liquid	0.01728 ± 0.00058
348.74 K, Closed cell (Static) method, Liquid	0.01981 ± 0.00062
350.69 K, Closed cell (Static) method, Liquid	0.02301 ± 0.00067
352.67 K, Closed cell (Static) method, Liquid	0.02636 ± 0.00072
354.64 K, Closed cell (Static) method, Liquid	0.03047 ± 0.00078
356.61 K, Closed cell (Static) method, Liquid	0.0348 ± 0.00085
358.61 K, Closed cell (Static) method, Liquid	0.03975 ± 0.00093
360.51 K, Closed cell (Static) method, Liquid	0.04544 ± 0.001
362.54 K, Closed cell (Static) method, Liquid	0.05195 ± 0.0011
364.52 K, Closed cell (Static) method, Liquid	0.05948 ± 0.0012
366.49 K, Closed cell (Static) method, Liquid	0.06748 ± 0.0014
368.46 K, Closed cell (Static) method, Liquid	0.07663 ± 0.0015

Conditions	Molar enthalpy of transition or fusion, Crystal 1 [kcal/mol]	Molar enthalpy of transition or fusion, Crystal 2 [kcal/mol]	Normal melting temperature, Crystal 1 [°C]	Triple point temperature, Crystal 2, DSC [K]
[1]	–	–	43.1 ± 0.5	308.1 ± 0.8
[2]	5.54 ± 0.167	0.239 ± 0.0956	–	–
